According to the supplement of paper PMC10307832:

Legend:
Test in all cases: relative viability (nuclei count vs DMSO), 5 days (fraction); higher = more cells survive
VE-821 + Tozasertib = compound: CS(=O)(=O)c1ccc(-c2cnc(N)c(C(=O)Nc3ccccc3)n2)cc1 [VE-821] + Cc1cc(Nc2cc(N3CCN(C)CC3)nc(Sc3ccc(NC(=O)C4CC4)cc3)n2)n[nH]1 [Tozasertib] (partner 0.1 µM)
Summary of the method: (§1)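 Lung cancer cell lines, seeded in 1536-well plates, were treated the following day by pin tool with a single drug or with five library-drug doses (not always all listed) in √10 steps on top of a fixed anchor-drug dose. Cells were fixed and nuclei stained in one step after 5 days, and nuclei were counted. Relative viability is the nuclei count for treated wells divided by that for vehicle wells, reported as medians of duplicate plates.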

Ruxolitinib + OSI-027 = compound: N#CC[C@H](C1CCCC1)n1cc(-c2ncnc3[nH]ccc23)cn1 [Ruxolitinib] + COc1cccc2cc(-c3nc([C@H]4CC[C@H](C(=O)O)CC4)n4ncnc(N)c34)[nH]c12 [OSI-027] (partner 0.5 µM)
Summary of the method: as §1

Ruxolitinib + Alpelisib = compound: N#CC[C@H](C1CCCC1)n1cc(-c2ncnc3[nH]ccc23)cn1 [Ruxolitinib] + Cc1nc(NC(=O)N2CCC[C@H]2C(N)=O)sc1-c1ccnc(C(C)(C)C(F)(F)F)c1 [Alpelisib] (partner 2 µM)
Summary of the method: as §1

Ruxolitinib + Vorinostat = compound: N#CC[C@H](C1CCCC1)n1cc(-c2ncnc3[nH]ccc23)cn1 [Ruxolitinib] + O=C(CCCCCCC(=O)Nc1ccccc1)NO [Vorinostat] (partner 1 µM)
Summary of the method: as §1

Cell Line: UMC-11
- relative viability (VE-821 + Tozasertib; first compound 0.08 µM): 0.203
- relative viability (VE-821 + Tozasertib; first compound 0.253 µM): 0.195
- relative viability (VE-821 + Tozasertib; first compound 0.8 µM): 0.223
- relative viability (VE-821 + Tozasertib; first compound 2.53 µM): 0.2
- relative viability (VE-821 + Tozasertib; first compound 8 µM): 0.203
- relative viability (Ruxolitinib + OSI-027; first compound 0.08 µM): 0.474
- relative viability (Ruxolitinib + OSI-027; first compound 0.253 µM): 0.448
- relative viability (Ruxolitinib + OSI-027; first compound 0.8 µM): 0.561
- relative viability (Ruxolitinib + OSI-027; first compound 2.53 µM): 0.498
- relative viability (Ruxolitinib + OSI-027; first compound 8 µM): 0.574
- relative viability (Ruxolitinib + Alpelisib; first compound 0.08 µM): 0.869
- relative viability (Ruxolitinib + Alpelisib; first compound 0.253 µM): 1.02
- relative viability (Ruxolitinib + Alpelisib; first compound 0.8 µM): 1.06
- relative viability (Ruxolitinib + Alpelisib; first compound 2.53 µM): 1.12
- relative viability (Ruxolitinib + Alpelisib; first compound 8 µM): 0.938
- relative viability (Ruxolitinib + Vorinostat; first compound 0.08 µM): 0.362
- relative viability (Ruxolitinib + Vorinostat; first compound 0.253 µM): 0.384
- relative viability (Ruxolitinib + Vorinostat; first compound 0.8 µM): 0.452
- relative viability (Ruxolitinib + Vorinostat; first compound 2.53 µM): 0.48
- relative viability (Ruxolitinib + Vorinostat; first compound 8 µM): 0.386
